Experimental data published in ChEMBL document CHEMBL2380208, “Novel quinoline derivatives as inhibitors of bacterial DNA gyrase and topoisomerase IV” (Bioorg Med Chem Lett, 2013).
≈ marks a conversion by molar mass, not a printed value.

Key:
DNA gyrase = DNA gyrase (Staphylococcus aureus, UniProt P0A0K8+P20831); assay: Inhibition of Staphylococcus aureus DNA gyrase; format: protein-complex assay
Streptococcus pyogenes [1] = assay: Antibacterial activity against Streptococcus pyogenes; format: functional
Staphylococcus aureus [2] = assay: Antibacterial activity against fluoroquinolone-resistant Staphylococcus aureus harboring DNA gyrase D83N mutant; format: functional
Staphylococcus aureus [3] = assay: Antibacterial activity against fluoroquinolone-resistant Staphylococcus aureus harboring DNA gyrase M121K mutant; format: functional
[4] = Inhibition of Staphylococcus aureus DNA topoisomerase 4
Staphylococcus aureus [5] = assay: Antibacterial activity against Staphylococcus aureus 1146; format: functional
[6] = Clearance in rat at 2 mg/kg, iv and 5 mg/kg, po; format: ADME, organism-based; settings: in vivo
Staphylococcus aureus [7] = assay: Antibacterial activity against fluoroquinolone-resistant Staphylococcus aureus 1095; format: functional
Streptococcus pyogenes [8] = assay: Antibacterial activity against Streptococcus pyogenes 02C0203 infected in mouse assessed as survival compound administered 0.5 to 4 hrs post-infection measured after 7 days; settings: 02C0203, in Mus musculus, read-out: PD50
[9] = biological target: Voltage-gated inwardly rectifying potassium channel KCNH2 (Homo sapiens, UniProt Q12809); assay: Inhibition of human ERG channel in HEK293 cells by voltage-gated patch clamp technique; format: cell-based
Staphylococcus aureus [10] = assay: Antibacterial activity against Staphylococcus aureus; format: functional
Staphylococcus aureus [11] = assay: Antibacterial activity against fluoroquinolone-resistant Staphylococcus aureus 1095 infected in mouse assessed as survival compound administered 0.5 to 4 hrs post-infection measured after 7 days; format: functional; settings: read-out: PD50
[12] = Oral bioavailability in rat at 5 mg/kg; format: ADME, organism-based; settings: in vivo
[13] = Volume of distribution at steady state in rat at 2 mg/kg, iv and 5 mg/kg, po; format: ADME, organism-based; settings: in vivo, read-out: Vdss
DNA gyrase subunit A [14] = biological target: DNA gyrase subunit A (Staphylococcus aureus, UniProt P20831, D83N); assay: Inhibition of Staphylococcus aureus DNA gyrase D83N mutant
[15] = Inhibition of Streptococcus pneumoniae topoisomerase 4
[16] = Inhibition of human DNA topoisomerase 4
DNA gyrase subunit A [17] = biological target: DNA gyrase subunit A (Staphylococcus aureus, UniProt P20831, M121K); assay: Inhibition of Staphylococcus aureus DNA gyrase M121K mutant
[18] = Inhibition of Streptococcus pneumoniae DNA gyrase

Chain of Voltage-gated inwardly rectifying potassium channel KCNH2 (Q12809 whole entry): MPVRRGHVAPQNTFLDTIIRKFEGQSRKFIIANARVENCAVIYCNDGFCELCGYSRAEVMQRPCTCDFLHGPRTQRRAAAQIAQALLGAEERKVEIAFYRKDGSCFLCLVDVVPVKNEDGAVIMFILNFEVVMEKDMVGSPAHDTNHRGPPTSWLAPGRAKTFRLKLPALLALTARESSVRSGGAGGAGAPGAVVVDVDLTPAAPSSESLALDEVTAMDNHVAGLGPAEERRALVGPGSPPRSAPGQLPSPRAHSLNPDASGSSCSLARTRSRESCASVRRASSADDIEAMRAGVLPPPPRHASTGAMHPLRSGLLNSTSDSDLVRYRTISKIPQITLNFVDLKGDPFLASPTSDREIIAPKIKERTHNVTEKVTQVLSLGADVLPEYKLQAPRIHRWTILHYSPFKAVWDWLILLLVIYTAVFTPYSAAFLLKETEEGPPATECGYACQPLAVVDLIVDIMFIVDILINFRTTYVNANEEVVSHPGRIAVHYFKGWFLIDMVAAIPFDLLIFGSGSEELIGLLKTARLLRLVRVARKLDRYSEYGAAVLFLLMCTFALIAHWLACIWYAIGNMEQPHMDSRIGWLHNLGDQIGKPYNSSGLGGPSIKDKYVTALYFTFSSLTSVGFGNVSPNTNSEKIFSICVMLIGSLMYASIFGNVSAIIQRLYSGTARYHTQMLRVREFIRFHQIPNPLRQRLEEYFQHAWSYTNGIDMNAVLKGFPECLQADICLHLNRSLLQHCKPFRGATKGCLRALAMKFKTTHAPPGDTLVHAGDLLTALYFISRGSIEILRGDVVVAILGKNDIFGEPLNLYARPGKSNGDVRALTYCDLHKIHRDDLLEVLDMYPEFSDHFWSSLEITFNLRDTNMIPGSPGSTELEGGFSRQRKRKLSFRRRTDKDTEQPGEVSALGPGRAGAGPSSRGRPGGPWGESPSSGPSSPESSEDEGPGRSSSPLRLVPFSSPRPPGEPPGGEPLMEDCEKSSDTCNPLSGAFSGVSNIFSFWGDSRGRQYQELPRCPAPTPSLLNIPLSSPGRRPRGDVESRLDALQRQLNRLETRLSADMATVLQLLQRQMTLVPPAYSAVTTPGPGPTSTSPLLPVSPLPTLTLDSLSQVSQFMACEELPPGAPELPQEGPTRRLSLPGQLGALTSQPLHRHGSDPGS

| Structure (SMILES) | IC50 (DNA gyrase) | MIC90 (Streptococcus pyogenes [1]) | MIC (Staphylococcus aureus [2]) | MIC (Staphylococcus aureus [3]) | IC50 [4] | MIC (Staphylococcus aureus [5]) | clearance [6] | MIC (Staphylococcus aureus [7]) | ED50 (Streptococcus pyogenes [8]) | IC50 [9] | MIC90 (Staphylococcus aureus [10]) | ED50 (Staphylococcus aureus [11]) | bioavailability [12] | Vd [13] | IC50 (DNA gyrase subunit A [14]) | IC50 [15] | IC50 [16] | IC50 (DNA gyrase subunit A [17]) | IC50 [18] |
| --- | --- | --- | --- | --- | --- | --- | --- | --- | --- | --- | --- | --- | --- | --- | --- | --- | --- | --- | --- |
| COc1ccc2nccc([C@@H](O)CC[C@@H]3CCN(C4CC(c5cc(F)ccc5F)C4)C[C@@H]3C(=O)O)c2c1 (stereo partly drawn) | 3 µM | 1 µg/mL (≈ 1.96 µM) | 10 µg/mL (≈ 19.6 µM) | 5.7 µg/mL (≈ 11.2 µM) | 9.62 µM | 0.25 µg/mL (≈ 0.49 µM) | 43.9 mL/min/kg | 0.5 µg/mL (≈ 0.979 µM) | 32.5 mg/kg | 9.97 µM | 0.25 µg/mL (≈ 0.49 µM) | 28.2 mg/kg | 47% | 1.3 L/kg | – | – | – | – | – |
| COc1ccc2nccc([C@@H](O)CC[C@@H]3CCN(C4CC(c5ccccc5)C4)C[C@@H]3C(=O)O)c2c1 (stereo partly drawn) | 1.19 µM | 1 µg/mL (≈ 2.11 µM) | ≥ 32 µg/mL | ≥ 64 µg/mL | 32.1 µM | 0.09 µg/mL (≈ 0.19 µM) | 43.1 mL/min/kg | 0.2 µg/mL (≈ 0.421 µM) | 14.1 mg/kg | 24.9 µM | 0.25 µg/mL (≈ 0.527 µM) | 6.9 mg/kg | 27% | 1.24 L/kg | > 200 µM | 8.37 µM | > 200 µM | > 200 µM | 8.84 µM |
| COc1ccc2nccc([C@@H](O)CC[C@@H]3CCN(C4CC(c5cc(F)c(OC)cc5F)C4)C[C@@H]3C(=O)O)c2c1 (stereo partly drawn) | 50 µM | – | > 64 µg/mL | > 64 µg/mL | 240 µM | 32 µg/mL (≈ 59.2 µM) | – | > 64 µg/mL | – | – | – | – | – | – | – | – | – | – | – |
| COc1ccc2nccc([C@@H](O)CC[C@@H]3CCN(C4CC(c5cc(Cl)ccc5F)C4)C[C@@H]3C(=O)O)c2c1 (stereo partly drawn) | 1.56 µM | – | 64 µg/mL (≈ 121 µM) | 64 µg/mL (≈ 121 µM) | 33.3 µM | ≤ 0.0625 µg/mL | – | ≤ 0.0625 µg/mL | – | – | – | – | – | – | – | – | – | – | – |
| COc1ccc2ncc(F)c([C@@H](O)CC[C@@H]3CCN(CCSc4cccs4)C[C@@H]3C(=O)O)c2c1 | 1.56 µM | 0.25 µg/mL (≈ 0.495 µM) | 32 µg/mL (≈ 63.4 µM) | 64 µg/mL (≈ 127 µM) | 30.4 µM | ≤ 0.063 µg/mL | 32.7 mL/min/kg | 0.125 µg/mL (≈ 0.248 µM) | – | 23.6 µM | 0.125 µg/mL (≈ 0.248 µM) | 22.1 mg/kg | 31.5% | 2.55 L/kg | – | – | > 200 µM | – | – |
| COc1ccc2nccc([C@@H](O)CC[C@@H]3CCN(C4CC(c5c(F)cccc5F)C4)C[C@@H]3C(=O)O)c2c1 (stereo partly drawn) | 2.93 µM | 1 µg/mL (≈ 1.96 µM) | 32 µg/mL (≈ 62.7 µM) | 23 µg/mL (≈ 45 µM) | > 100 µM | 0.125 µg/mL (≈ 0.245 µM) | 39.7 mL/min/kg | 0.25 µg/mL (≈ 0.49 µM) | 22 mg/kg | – | 0.25 µg/mL (≈ 0.49 µM) | 16.3 mg/kg | – | 3 L/kg | – | – | – | – | – |
| COc1ccc2nccc([C@H](O)CC[C@@H]3CCN(C4CC(c5ccccc5)C4)C[C@@H]3C(=O)O)c2c1 (stereo partly drawn) | – | – | – | – | – | 0.23 µg/mL (≈ 0.485 µM) | – | – | – | – | – | – | – | – | – | 30 µM | > 200 µM | – | 21.7 µM |
| COc1ccc2nccc([C@@H](O)CC[C@@H]3CCN(C4CC(c5cc(F)cc(F)c5F)C4)C[C@@H]3C(=O)O)c2c1 (stereo partly drawn) | 1.56 µM | – | 8 µg/mL (≈ 15.1 µM) | 8 µg/mL (≈ 15.1 µM) | 8.4 µM | ≤ 0.0625 µg/mL | – | 0.125 µg/mL (≈ 0.236 µM) | – | 30.9 µM | – | – | – | – | – | – | – | – | – |
| COc1ccc2nccc([C@@H](O)CC[C@@H]3CCN(C4CC(c5cc(F)c(Cl)cc5F)C4)C[C@@H]3C(=O)O)c2c1 (stereo partly drawn) | 4.7 µM | – | > 64 µg/mL | > 64 µg/mL | 120 µM | 0.25 µg/mL (≈ 0.459 µM) | – | 1 µg/mL (≈ 1.83 µM) | – | – | – | – | – | – | – | – | – | – | – |
| COc1ccc2nccc([C@@H](O)CC[C@@H]3CCN(CCSc4cccs4)C[C@@H]3C(=O)O)c2c1 | 2.42 µM | – | > 64 µg/mL | > 64 µg/mL | 84.6 µM | 0.068 µg/mL (≈ 0.14 µM) | – | 0.1 µg/mL (≈ 0.205 µM) | – | – | – | 34.7 mg/kg | – | – | – | 6.54 µM | > 200 µM | – | 5.85 µM |
| COc1ccc2nccc(C(O)CC[C@@H]3CCN(C/C=C/c4cc(F)ccc4F)C[C@@H]3C(=O)O)c2c1 (stereo partly drawn) | 7.66 µM | – | 10 µg/mL (≈ 20.1 µM) | 13 µg/mL (≈ 26.2 µM) | 8.84 µM | 0.25 µg/mL (≈ 0.503 µM) | – | 0.5 µg/mL (≈ 1.01 µM) | – | – | – | – | – | – | – | 3.75 µM | 100 µM | – | 6.25 µM |
| COc1ccc2nccc([C@@H](O)CC[C@@H]3CCN(C4CC(c5c(F)ccc(F)c5OC)C4)C[C@@H]3C(=O)O)c2c1 (stereo partly drawn) | 3.13 µM | – | 64 µg/mL (≈ 118 µM) | > 64 µg/mL | 25 µM | ≤ 0.0625 µg/mL | – | ≤ 0.0625 µg/mL | – | – | – | – | – | – | – | – | – | – | – |
| COc1ccc2nccc([C@@H](O)CC[C@@H]3CCN(C4CC(c5cc(F)ccc5C(F)(F)F)C4)C[C@@H]3C(=O)O)c2c1 (stereo partly drawn) | 9.4 µM | – | 16 µg/mL (≈ 28.5 µM) | 32 µg/mL (≈ 57.1 µM) | 60 µM | 0.25 µg/mL (≈ 0.446 µM) | – | 0.5 µg/mL (≈ 0.892 µM) | – | – | – | – | – | – | – | – | – | – | – |
| COc1ccc2nccc(C(O)CC[C@@H]3CCN(C[C@@H]4C[C@H]4c4ccccc4)C[C@@H]3C(=O)O)c2c1 (mixture of isomers) | – | – | – | – | – | 1 µg/mL | – | – | – | – | – | – | – | – | – | 7.5 µM | 150 µM | – | 50 µM |
| COc1ccc2nccc([C@@H](O)CC[C@@H]3CCN(C4CC(c5cc(F)cc(F)c5)C4)C[C@@H]3C(=O)O)c2c1 (stereo partly drawn) | 1.56 µM | – | 8 µg/mL (≈ 15.7 µM) | 8 µg/mL (≈ 15.7 µM) | 15 µM | ≤ 0.0625 µg/mL | – | 0.25 µg/mL (≈ 0.49 µM) | – | 7.18 µM | – | – | – | – | – | – | – | – | – |
| O=C(O)c1cn(C2CC2)c2cc(N3CCNCC3)c(F)cc2c1=O [CIPROFLOXACIN] | – | 0.5 µg/mL (≈ 1.51 µM) | – | – | – | – | – | – | – | – | > 64 µg/mL | – | – | – | – | – | – | – | – |
| COc1ccc2nccc([C@@H](O)CC[C@@H]3CCN(C4CC(c5ccccc5F)C4)C[C@@H]3C(=O)O)c2c1 (stereo partly drawn) | 12.5 µM | – | 64 µg/mL (≈ 130 µM) | > 64 µg/mL | 37 µM | ≤ 0.0625 µg/mL | – | ≤ 0.0625 µg/mL | – | – | – | – | – | – | – | – | – | – | – |
